The text below walks through data of patent publication US11345678B2, “Benzopyrazole compound used as RHO kinase inhibitor” (MEDSHINE DISCOVERY INC., priority 2018, dated 2022).

ROCK2, sequence (O75116 whole entry): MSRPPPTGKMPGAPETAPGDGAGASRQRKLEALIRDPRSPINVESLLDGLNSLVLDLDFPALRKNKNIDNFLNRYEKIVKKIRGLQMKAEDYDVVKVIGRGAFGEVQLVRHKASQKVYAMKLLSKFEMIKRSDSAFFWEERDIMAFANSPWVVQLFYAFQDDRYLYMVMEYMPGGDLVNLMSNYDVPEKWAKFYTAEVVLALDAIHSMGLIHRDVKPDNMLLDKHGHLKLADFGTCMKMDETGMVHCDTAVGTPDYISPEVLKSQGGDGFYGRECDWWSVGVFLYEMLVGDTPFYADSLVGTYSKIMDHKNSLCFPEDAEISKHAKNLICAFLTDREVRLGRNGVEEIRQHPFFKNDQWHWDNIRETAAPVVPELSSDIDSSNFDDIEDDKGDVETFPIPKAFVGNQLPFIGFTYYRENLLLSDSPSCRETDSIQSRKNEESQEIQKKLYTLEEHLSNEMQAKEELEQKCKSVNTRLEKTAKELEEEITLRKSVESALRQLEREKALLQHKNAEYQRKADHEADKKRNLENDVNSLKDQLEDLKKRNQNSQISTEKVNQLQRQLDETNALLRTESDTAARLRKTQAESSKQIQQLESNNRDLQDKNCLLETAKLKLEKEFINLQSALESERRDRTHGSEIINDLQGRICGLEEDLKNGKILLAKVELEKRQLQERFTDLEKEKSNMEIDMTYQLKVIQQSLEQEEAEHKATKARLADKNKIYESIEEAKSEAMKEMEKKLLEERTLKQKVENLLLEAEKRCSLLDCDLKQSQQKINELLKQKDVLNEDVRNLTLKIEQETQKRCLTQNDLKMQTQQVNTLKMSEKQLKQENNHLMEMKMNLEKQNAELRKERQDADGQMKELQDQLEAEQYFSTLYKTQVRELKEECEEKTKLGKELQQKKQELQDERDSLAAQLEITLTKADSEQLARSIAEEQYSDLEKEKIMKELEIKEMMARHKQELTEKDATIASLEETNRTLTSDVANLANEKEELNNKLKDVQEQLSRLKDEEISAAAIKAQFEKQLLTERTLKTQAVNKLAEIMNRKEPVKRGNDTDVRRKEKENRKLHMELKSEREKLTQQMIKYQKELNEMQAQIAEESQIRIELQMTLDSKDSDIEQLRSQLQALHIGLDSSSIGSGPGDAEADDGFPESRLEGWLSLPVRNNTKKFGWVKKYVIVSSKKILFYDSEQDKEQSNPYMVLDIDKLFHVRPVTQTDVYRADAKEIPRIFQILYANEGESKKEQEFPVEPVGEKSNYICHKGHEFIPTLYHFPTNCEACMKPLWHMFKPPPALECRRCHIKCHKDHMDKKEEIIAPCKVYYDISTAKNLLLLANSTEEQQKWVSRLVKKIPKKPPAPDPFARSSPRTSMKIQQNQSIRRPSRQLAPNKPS

For one data set, the target named is ROCK1 (Homo sapiens (Human), UniProt Q13464). Briefly: In vitro inhibitory activity against ROCK protein kinase (33P-ATP filter-binding), ROCK1. The class given is biochemical. The settings on record: 1 nM ROCK protein kinase, 20 μM Long S6 Kinase substrate peptide. The protocol: (§1) 1. In Vitro Evaluation of the Inhibitory Activity Against ROCK Protein Kinase
ROCK1, sequence (Q13464 whole entry): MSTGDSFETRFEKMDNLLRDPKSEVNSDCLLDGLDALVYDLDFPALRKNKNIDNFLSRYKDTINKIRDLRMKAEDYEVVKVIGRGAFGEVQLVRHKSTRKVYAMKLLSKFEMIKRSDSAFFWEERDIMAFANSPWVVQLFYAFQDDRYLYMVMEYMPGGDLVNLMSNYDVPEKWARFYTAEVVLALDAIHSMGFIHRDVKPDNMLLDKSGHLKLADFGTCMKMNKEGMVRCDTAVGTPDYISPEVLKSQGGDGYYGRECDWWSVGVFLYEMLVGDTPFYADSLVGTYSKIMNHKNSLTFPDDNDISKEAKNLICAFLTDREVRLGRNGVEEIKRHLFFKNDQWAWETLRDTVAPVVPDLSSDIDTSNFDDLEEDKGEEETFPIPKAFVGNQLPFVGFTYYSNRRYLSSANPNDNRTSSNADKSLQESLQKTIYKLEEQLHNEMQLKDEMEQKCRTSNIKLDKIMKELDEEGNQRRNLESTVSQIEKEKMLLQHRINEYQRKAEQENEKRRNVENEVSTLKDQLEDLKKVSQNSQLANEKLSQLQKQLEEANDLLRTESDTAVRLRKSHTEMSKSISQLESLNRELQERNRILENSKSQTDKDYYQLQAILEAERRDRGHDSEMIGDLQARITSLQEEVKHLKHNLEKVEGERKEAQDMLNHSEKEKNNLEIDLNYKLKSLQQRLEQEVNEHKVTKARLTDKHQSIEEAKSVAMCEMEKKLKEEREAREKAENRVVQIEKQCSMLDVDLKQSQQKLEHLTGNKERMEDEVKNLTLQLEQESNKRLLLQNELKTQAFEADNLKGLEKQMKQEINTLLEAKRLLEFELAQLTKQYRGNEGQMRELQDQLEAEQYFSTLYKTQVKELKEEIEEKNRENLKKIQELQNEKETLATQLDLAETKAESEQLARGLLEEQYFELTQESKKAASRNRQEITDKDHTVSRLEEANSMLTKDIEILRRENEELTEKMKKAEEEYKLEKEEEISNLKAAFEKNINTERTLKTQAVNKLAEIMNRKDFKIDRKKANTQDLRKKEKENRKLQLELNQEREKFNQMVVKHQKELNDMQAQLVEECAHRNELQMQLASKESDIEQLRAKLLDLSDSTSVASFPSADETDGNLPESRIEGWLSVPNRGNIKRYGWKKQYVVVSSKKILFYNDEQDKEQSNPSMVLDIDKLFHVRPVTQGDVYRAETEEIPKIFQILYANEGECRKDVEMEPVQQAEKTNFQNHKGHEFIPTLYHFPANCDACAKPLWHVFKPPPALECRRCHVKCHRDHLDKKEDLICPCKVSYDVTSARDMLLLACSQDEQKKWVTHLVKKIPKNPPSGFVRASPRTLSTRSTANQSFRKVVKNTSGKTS
(§2) Experimental purpose: to detect the inhibitory IC50 value of the compound against ROCK protein kinase.
(§3) Assay buffer solution: 20 mM 4-hydroxyethylpiperazine ethanesulfonic acid (pH 7.5), 10 mM magnesium chloride, 1 mM ethylene glycol-bis-(2-aminoethyl)tetraacetic acid, 0.02% polyethylene glycol monododecyl ether, 0.02 mg/mL bovine serum albumin, 0.1 mM sodium vanadate, 2 mM dithiothreitol, 1% DMSO.
(§4) The freshly prepared buffer solution was added to ROCK protein kinase substrate (Long S6 Kinase substrate peptide), at a concentration of 20 μM, then 1 nM ROCK protein kinase was added thereto and stirred evenly. Echo550 was used to add a series of DMSO dilutions containing the test compound (starting from 10 μM, serially diluted by 3 times), the solution was pre-incubated at room temperature for 20 minutes, then ^33P-ATP (radiation intensity 10 μCi/μL) was added to initiate the reaction, and the reaction was performed at room temperature for two hours. Then the solution was filtered by P81 ion exchange paper (Whatman #3698-915) and washed with 0.75% phosphoric acid. The radiation intensity was determined by Filter-Binding method.
(§5) The protein kinase inhibitory activity of the compound was expressed as the remaining protein kinase activity relative to the blank substrate (simply DMSO). Prism software package (GraphPad Software, San Diego Calif., USA) was used to calculate IC50 value and the curve.
A word on the IC50: it is the point on the concentration scale where inhibition reaches its midpoint. Lower therefore signals inhibition by little substance. As to `COc1cccc(C(CO)NC(=O)c2cccc(-c3ccc4[nH]nc(C)c4c3)c2)c1` (stereo not drawn) [Compound 25], the IC50 amounted to 89 nM.

Molecule `COc1cccc(C(CO)NC(=O)c2cccc(-c3ccc4[nH]nc(F)c4c3)c2)c1` (stereo not drawn) [Compound 26] returned an IC50 of 113 nM.

Molecule `Cc1cccc(C(CN)NC(=O)c2cccc(-c3ccc4[nH]nc(C)c4c3)c2)c1` (stereo not drawn) [Compound 35] had an IC50 of 317 nM.

As to `COc1cccc(C(CN(C)C)NC(=O)c2cccc(-c3ccc4[nH]nc(C)c4c3)c2)c1` (stereo not drawn) [Compound 36], the IC50 turned out to be 73 nM.

`COc1cccc(C(CN)NC(=O)c2cc(-c3ccc4[nH]nc(C)c4c3)ccn2)c1` (stereo not drawn) [Compound 40] came in with an IC50 of 57 nM.

Regarding `COc1cccc(C(CN)NC(=O)c2cc(-c3ccc4[nH]nc(C)c4c3)ccc2OC(F)(F)F)c1` (stereo not drawn) [Compound 49], the IC50 is 1200 nM.

Regarding `COc1cccc(C(CN)NC(=O)c2cc(C#N)cc(-c3ccc4[nH]nc(C)c4c3)c2)c1` (stereo not drawn) [Compound 57], the IC50 came to 1260 nM.

Molecule `COc1cccc(C(CN)NC(=O)c2cc(CN3CCCC3)cc(-c3ccc4[nH]nc(F)c4c3)c2)c1` (stereo not drawn) [Compound 58] displayed an IC50 of 1610 nM. This IC50 and that of the molecule before are within 1.5-fold of each other.

`Cc1n[nH]c2ccc(-c3cccc(C(=O)NC(CO)c4cccc(F)c4)c3)cc12` (stereo not drawn) [Compound 59] gave an IC50 of 94 nM.

The next data set concerns the target ROCK2 (Homo sapiens (Human), UniProt O75116). As to the kind of experiment: In vitro inhibitory activity against ROCK protein kinase (33P-ATP filter-binding), ROCK2. It is filed as biochemical. The settings on record: 1 nM ROCK protein kinase, 20 μM Long S6 Kinase substrate peptide. The protocol:
as §1, §2, §3, §4, §5
For `COc1cccc(C(CO)NC(=O)c2cccc(-c3ccc4[nH]nc(C)c4c3)c2)c1` (stereo not drawn) [Compound 25], the IC50 came to 5 nM.

`COc1cccc(C(CO)NC(=O)c2cccc(-c3ccc4[nH]nc(F)c4c3)c2)c1` (stereo not drawn) [Compound 26]: the IC50 is 16 nM. This IC50 is about 3.2-fold higher than that of the molecule before.

For the molecule `Cc1cccc(C(CN)NC(=O)c2cccc(-c3ccc4[nH]nc(C)c4c3)c2)c1` (stereo not drawn) [Compound 35], the IC50 was 13 nM.

The molecule `COc1cccc(C(CN(C)C)NC(=O)c2cccc(-c3ccc4[nH]nc(C)c4c3)c2)c1` (stereo not drawn) [Compound 36] showed an IC50 of 10 nM. The IC50 values of the last two molecules are within 1.5-fold of each other.

`COc1cccc(C(CN)NC(=O)c2cc(-c3ccc4[nH]nc(C)c4c3)ccn2)c1` (stereo not drawn) [Compound 40] returned an IC50 of 4 nM.

Regarding `COc1cccc(C(CN)NC(=O)c2cc(-c3ccc4[nH]nc(C)c4c3)ccc2OC(F)(F)F)c1` (stereo not drawn) [Compound 49], the IC50 stood at 31 nM.

For the molecule `COc1cccc(C(CN)NC(=O)c2cc(C#N)cc(-c3ccc4[nH]nc(C)c4c3)c2)c1` (stereo not drawn) [Compound 57], the IC50 was found to be 58 nM. This IC50 is about 1.9-fold higher than that of the molecule before.

With `COc1cccc(C(CN)NC(=O)c2cc(CN3CCCC3)cc(-c3ccc4[nH]nc(F)c4c3)c2)c1` (stereo not drawn) [Compound 58], the IC50 was 48 nM.

As to `Cc1n[nH]c2ccc(-c3cccc(C(=O)NC(CO)c4cccc(F)c4)c3)cc12` (stereo not drawn) [Compound 59], the IC50 was 16 nM.

System in a further data set: not listed separately
Briefly: Pharmacokinetics in SD rats (intravenous injection and oral administration). The class given is in vivo. The settings on record: rat, plasma; male SD rats, intravenous 1 mg/kg; read-out: Clearance rate CL. The protocol:
4. Evaluation of the Pharmacokinetics of the Compound
Experimental purpose: to study the pharmacokinetics of the compounds in SD rats in vivo
SD rat (male, 7 to 10 weeks old, WTLH/SLAC)
The rodent pharmacokinetic characteristics of the compounds after intravenous injection and oral administration were tested by standard protocols. In the experiment, the candidate compounds were formulated into 0.2 mg/mL clear solutions and were given to the rats by a single intravenous injection and oral administration. The vehicles of the intravenous injection and oral administration were both 5% DMSO/95% (10% hydroxypropyl P-cyclodextrin) aqueous solution. This project used four male SD rats and two of them were administered by intravenous injection at a dosage of 1 mg/kg, plasma samples were collected at 0.0833, 0.25, 0.5, 1, 2, 4, 6, 8, and 24 hours after administration, the other two rats were administered orally and intragastrically at a dosage of 2 mg/kg, plasma samples were collected at 0.25, 0.5, 1, 2, 3, 4, 6, 8, 24 hours after administration. The whole blood samples were collected within 24 hours and centrifuged at 3000 g for 15 minutes, and the supernatants were separated to give plasma samples. The plasma samples were added with an acetonitrile solution containing internal standard to precipitate protein, mixed thoroughly and centrifuged, and the supernatants were taken for injection. The blood drug concentration was quantitatively analyzed by LC-MS/MS analysis method, and the pharmacokinetic parameters (such as peak concentration (Cmax), clearance rate (CL), half-life (T1/2), […] (Vdss), area under the drug-time curve (AUC0-last), and bioavailability (F), etc.) were calculated.
`COc1cccc(C(CO)NC(=O)c2cccc(-c3ccc4[nH]nc(C)c4c3)c2)c1` (stereo not drawn) [Compound 25]: the clearance amounted to 6.24 mL/min/kg.

Consider `COc1cccc(C(CO)NC(=O)c2cccc(-c3ccc4[nH]nc(F)c4c3)c2)c1` (stereo not drawn) [Compound 26], for which the clearance was 14 mL/min/kg.

As for `Cc1cccc(C(CN)NC(=O)c2cccc(-c3ccc4[nH]nc(C)c4c3)c2)c1` (stereo not drawn) [Compound 35], the clearance was determined as 25 mL/min/kg.

As for `COc1cccc(C(CN(C)C)NC(=O)c2cccc(-c3ccc4[nH]nc(C)c4c3)c2)c1` (stereo not drawn) [Compound 36], the clearance came to 50.9 mL/min/kg.

For `COc1cccc(C(CN)NC(=O)c2cc(-c3ccc4[nH]nc(C)c4c3)ccn2)c1` (stereo not drawn) [Compound 40], the clearance amounted to 23.4 mL/min/kg.

For the molecule `COc1cccc(C(CN)NC(=O)c2cc(-c3ccc4[nH]nc(C)c4c3)ccc2OC(F)(F)F)c1` (stereo not drawn) [Compound 49], the clearance worked out at 23.1 mL/min/kg.

The same data set, now with this note: rat, plasma; male SD rats, intravenous 1 mg/kg; read-out: Half-life T1/2 (IV) (converted).
Regarding `COc1cccc(C(CO)NC(=O)c2cccc(-c3ccc4[nH]nc(C)c4c3)c2)c1` (stereo not drawn) [Compound 25], the half-life is 2.91 h.

Consider `COc1cccc(C(CO)NC(=O)c2cccc(-c3ccc4[nH]nc(F)c4c3)c2)c1` (stereo not drawn) [Compound 26], for which the half-life is 2.5 h.

Take `Cc1cccc(C(CN)NC(=O)c2cccc(-c3ccc4[nH]nc(C)c4c3)c2)c1` (stereo not drawn) [Compound 35]: the half-life is 3.83 h.

Consider `COc1cccc(C(CN(C)C)NC(=O)c2cccc(-c3ccc4[nH]nc(C)c4c3)c2)c1` (stereo not drawn) [Compound 36], for which the half-life was 1.33 h.

Consider `COc1cccc(C(CN)NC(=O)c2cc(-c3ccc4[nH]nc(C)c4c3)ccn2)c1` (stereo not drawn) [Compound 40], for which the half-life was 3.58 h.

For `COc1cccc(C(CN)NC(=O)c2cc(-c3ccc4[nH]nc(C)c4c3)ccc2OC(F)(F)F)c1` (stereo not drawn) [Compound 49], the half-life is 4.82 h.

Staying with this data set, now noted: rat, plasma; male SD rats, intravenous 1 mg/kg; read-out: Tissue distribution Vdss.
Regarding `COc1cccc(C(CO)NC(=O)c2cccc(-c3ccc4[nH]nc(C)c4c3)c2)c1` (stereo not drawn) [Compound 25], the Vd is 1.15 L/kg.

For the molecule `COc1cccc(C(CO)NC(=O)c2cccc(-c3ccc4[nH]nc(F)c4c3)c2)c1` (stereo not drawn) [Compound 26], the Vd was 1.72 L/kg.

Take `Cc1cccc(C(CN)NC(=O)c2cccc(-c3ccc4[nH]nc(C)c4c3)c2)c1` (stereo not drawn) [Compound 35]: the Vd came to 6.78 L/kg.

As to `COc1cccc(C(CN(C)C)NC(=O)c2cccc(-c3ccc4[nH]nc(C)c4c3)c2)c1` (stereo not drawn) [Compound 36], the Vd turned out to be 5.05 L/kg.

Regarding `COc1cccc(C(CN)NC(=O)c2cc(-c3ccc4[nH]nc(C)c4c3)ccn2)c1` (stereo not drawn) [Compound 40], the Vd was determined as 6 L/kg.

`COc1cccc(C(CN)NC(=O)c2cc(-c3ccc4[nH]nc(C)c4c3)ccc2OC(F)(F)F)c1` (stereo not drawn) [Compound 49]: the Vd was determined as 8.31 L/kg.

Still in this data set, the particulars now being: rat, plasma; male SD rats, oral 2 mg/kg vs intravenous 1 mg/kg; read-out: Bioavailability F.
A word on the bioavailability: it is the share of a dose that reaches the circulation, judged against a reference dose that is usually intravenous. As to `COc1cccc(C(CO)NC(=O)c2cccc(-c3ccc4[nH]nc(C)c4c3)c2)c1` (stereo not drawn) [Compound 25], the bioavailability was 45%.

For the molecule `COc1cccc(C(CO)NC(=O)c2cccc(-c3ccc4[nH]nc(F)c4c3)c2)c1` (stereo not drawn) [Compound 26], the bioavailability worked out at 51%.

As for `Cc1cccc(C(CN)NC(=O)c2cccc(-c3ccc4[nH]nc(C)c4c3)c2)c1` (stereo not drawn) [Compound 35], the bioavailability turned out to be 21%.

`COc1cccc(C(CN(C)C)NC(=O)c2cccc(-c3ccc4[nH]nc(C)c4c3)c2)c1` (stereo not drawn) [Compound 36]: the bioavailability turned out to be 10%.

Regarding `COc1cccc(C(CN)NC(=O)c2cc(-c3ccc4[nH]nc(C)c4c3)ccn2)c1` (stereo not drawn) [Compound 40], the bioavailability is 21%.

Regarding `COc1cccc(C(CN)NC(=O)c2cc(-c3ccc4[nH]nc(C)c4c3)ccc2OC(F)(F)F)c1` (stereo not drawn) [Compound 49], the bioavailability amounted to 60%.

The same data set, now with this note: rat, plasma; male SD rats, oral 2 mg/kg; read-out: Area under the drug-time curve AUC0-last PO.
Consider `COc1cccc(C(CO)NC(=O)c2cccc(-c3ccc4[nH]nc(C)c4c3)c2)c1` (stereo not drawn) [Compound 25], for which the AUC(0-t) was found to be 6.3 µM·h.

Regarding `COc1cccc(C(CO)NC(=O)c2cccc(-c3ccc4[nH]nc(F)c4c3)c2)c1` (stereo not drawn) [Compound 26], the AUC(0-t) stood at 3.04 µM·h.

For the molecule `Cc1cccc(C(CN)NC(=O)c2cccc(-c3ccc4[nH]nc(C)c4c3)c2)c1` (stereo not drawn) [Compound 35], the AUC(0-t) was 0.734 µM·h.

As to `COc1cccc(C(CN(C)C)NC(=O)c2cccc(-c3ccc4[nH]nc(C)c4c3)c2)c1` (stereo not drawn) [Compound 36], the AUC(0-t) is 0.156 µM·h.

In the case of `COc1cccc(C(CN)NC(=O)c2cc(-c3ccc4[nH]nc(C)c4c3)ccn2)c1` (stereo not drawn) [Compound 40], the AUC(0-t) was found to be 0.758 µM·h.

For the molecule `COc1cccc(C(CN)NC(=O)c2cc(-c3ccc4[nH]nc(C)c4c3)ccc2OC(F)(F)F)c1` (stereo not drawn) [Compound 49], the AUC(0-t) turned out to be 1.33 µM·h.

The data set is the same for the next values; noted with them: rat, plasma; male SD rats, oral 2 mg/kg; read-out: Peak concentration Cmax.
`COc1cccc(C(CO)NC(=O)c2cccc(-c3ccc4[nH]nc(C)c4c3)c2)c1` (stereo not drawn) [Compound 25]: the Cmax stood at 1180 nM.

For the molecule `COc1cccc(C(CO)NC(=O)c2cccc(-c3ccc4[nH]nc(F)c4c3)c2)c1` (stereo not drawn) [Compound 26], the Cmax worked out at 752 nM.

`Cc1cccc(C(CN)NC(=O)c2cccc(-c3ccc4[nH]nc(C)c4c3)c2)c1` (stereo not drawn) [Compound 35]: the Cmax turned out to be 117 nM.

Take `COc1cccc(C(CN(C)C)NC(=O)c2cccc(-c3ccc4[nH]nc(C)c4c3)c2)c1` (stereo not drawn) [Compound 36]: the Cmax is 36.4 nM.

Turning to `COc1cccc(C(CN)NC(=O)c2cc(-c3ccc4[nH]nc(C)c4c3)ccn2)c1` (stereo not drawn) [Compound 40], the Cmax amounted to 117 nM.

On to `COc1cccc(C(CN)NC(=O)c2cc(-c3ccc4[nH]nc(C)c4c3)ccc2OC(F)(F)F)c1` (stereo not drawn) [Compound 49], for which the Cmax was found to be 157 nM.
